Measurements published in patent publication US20080293647A1, “Combined Use Of Vitamin D Derivatives And Anti-Proliferative Agents For Treating Bladder Cancer” (priority 2004, published 2008).
“And” between values parts separate entries of the source, which are not always exact repeats. Equal values may be shown once. Read-outs that look alike come from different tables or passages of the source.

Legend:
[1] = Stability/compatibility of epirubicin and calcitriol solution for intravesical instillation (HPLC-UV); type: physicochemical
Description: Approximately 12 mg of freeze-dried Farimorubicina® powder (approx. 2 mg of epirubicin) were dissolved in water to produce a concentrated stock solution. After vortexing, the concentrated stock was diluted 1:2 using a isotonic saline containing Tween 20 at 0.1% (w/v) to provide Sample B. After further vortexing, Sample B was stored at 4° C. until use. […] The solution was mixed and stored at −20° C. until use. 100 μl of the concentrated stock solution was then taken and diluted with 900 μl of isotonic saline containing Tween 20 0.1% (w/v). After shaking the sample was stored at 4° C. until use. […] Following mixing by vortexing, the sample was stored at 5° C. and analysed using HPLC chromatography after preparation (t=0) and after 2.5 hr (t=150 min). [table]

RT4 = assay: Inhibition of cell proliferation, RT4 human bladder cancer cells (CyQuant); type: cell-based; conditions: 96-h culture, read-out: Bladder Cancer Cell Lines IC50 (μM) RT4
Description: (§1) After an additional 96-h culture, the medium was removed and the plates frozen at −80° C. Cell proliferation was evaluated using CyQuant cell proliferation assay kit from Molecular Probes (Eugene, Oreg.).

RT112 = assay: Inhibition of cell proliferation, RT112 human bladder cancer cells (CyQuant); type: cell-based; conditions: 96-h culture, read-out: Bladder Cancer Cell Lines IC50 (μM) RT112
Description: as §1

24-hydroxylase (CYP24) = assay: Expression of 24-hydroxylase (CYP24) in human bladder cancer cell lines, Real Time RT-PCR; type: cell-based; conditions: 100 nM, 2 h
[2] = combination (calcitriol 50 μg/ml + epirubicin 1 mg/ml), t = 0 min
[3] = combination (calcitriol 50 μg/ml + epirubicin 1 mg/ml), t = 150 min, stored at 5° C.
[4] = single-component solution (epirubicin 1 mg/ml; calcitriol 100 μg/ml), HPLC peak area

SMILES: C=C1/C(=C\C=C2/CCC[C@]3(C)C([C@H](C)CCCC(C)(C)O)CC[C@@H]23)C[C@@H](O)C[C@@H]1O (some centres unmarked) [1,25-Dihydroxycholecalciferol]
- Area (230 nm) [1, 2]: 2068192 and 1960823
- Area (254 nm) [1, 2]: 2710511 and 2589663
- Area (230 nm) [1, 3]: 2027619 and 1954501
- Area (254 nm) [1, 3]: 2674857 and 2572268
- Area (230 nm) [1, 4]: 3402919 and 3485146
- Area (254 nm) [1, 4]: 4981173 and 5116113
- IC50 (RT4): 26 µM
- IC50 (RT4; Homo sapiens, RT-4, 96 h): 45 µM
- IC50 (RT112): 28.7 µM
- IC50 (RT112; Homo sapiens, RT-112, 96 h): 19 µM
- Expression of 24-hydroxylase (CYP24) (24-hydroxylase (CYP24)): up-regulation of CYP24
